Where two headings read alike, the source gives them in different places.
Experiments:
[1] = target: T1, recombinant human JAK1 kinase domain protein (Residues 854-1154) (Homo sapiens, UniProt P23458); experiment: JAK1 biochemical assay (microfluidic mobility shift, peptide phosphorylation); details: 25 μM ATP, 1 nM total JAK1; Ki calculated from Ki app (tight-binding, competitive); read-out: Biochem JAK1 Ki
T1 construct: human JAK1 kinase domain protein (Residues 854-1154); purchased Proteros Biostructures GmbH (Martinsried, Germany); host or cells: insect cells
T1 sequence (P23458 854-1154): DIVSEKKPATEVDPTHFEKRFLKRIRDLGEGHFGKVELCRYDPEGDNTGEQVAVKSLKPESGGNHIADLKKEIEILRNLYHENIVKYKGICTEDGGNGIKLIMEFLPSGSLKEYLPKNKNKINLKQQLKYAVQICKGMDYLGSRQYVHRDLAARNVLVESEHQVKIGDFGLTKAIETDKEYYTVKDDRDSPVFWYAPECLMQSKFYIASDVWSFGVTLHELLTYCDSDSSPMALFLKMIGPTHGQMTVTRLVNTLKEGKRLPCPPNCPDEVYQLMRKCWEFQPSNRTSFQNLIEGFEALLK
Method in brief: (§1)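 Insect-cell-expressed human JAK1 (1 nM, residues 854-1154) or JAK2 (0.2 nM, residues 812-1132) phosphorylating 1.5 μM 5-FAM peptide Y-1B with 25 μM ATP, pH 7.2 HEPES, 30 min at 22-23 °C; twelve concentrations up to 1000 nM in duplicate. Mobility-shift % conversion fitted to tight-binding quadratic for Ki^app.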

[2] = tested on: JAK1 (IL-13-stimulated STAT6 phosphorylation in BEAS-2B cells); experiment: P-STAT6 BEAS-2B+IL-13 cell assay; type: cell-based, human; details: 1 hour compound, IL-13 15 minutes, IC50 by four-parameter fit, read-out: Cellular JAK1 PSTAT6 BEAS2B + IL13
Method in brief: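 BEAS-2B human bronchial epithelial cells preincubated 1 h at 37 °C with compound, then stimulated with human recombinant IL-13 for 15 min. Phospho-STAT6 (Tyr641) in lysates measured by MSD electrochemiluminescence immunoassay; IC50 from a four-parameter logistic fit of percent of control.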

[3] = target: T2, Recombinant human JAK2 kinase domain protein (Residues 812-1132) (Homo sapiens, UniProt O60674); experiment: JAK2 biochemical assay (microfluidic mobility shift, peptide phosphorylation); details: 25 μM ATP, 0.2 nM total JAK2; Ki calculated from Ki app (tight-binding, competitive); read-out: Biochem JAK2 Ki
T2 construct: human JAK2 kinase domain protein (Residues 812-1132); made in house; host or cells: insect cells
T2 sequence (O60674 812-1132): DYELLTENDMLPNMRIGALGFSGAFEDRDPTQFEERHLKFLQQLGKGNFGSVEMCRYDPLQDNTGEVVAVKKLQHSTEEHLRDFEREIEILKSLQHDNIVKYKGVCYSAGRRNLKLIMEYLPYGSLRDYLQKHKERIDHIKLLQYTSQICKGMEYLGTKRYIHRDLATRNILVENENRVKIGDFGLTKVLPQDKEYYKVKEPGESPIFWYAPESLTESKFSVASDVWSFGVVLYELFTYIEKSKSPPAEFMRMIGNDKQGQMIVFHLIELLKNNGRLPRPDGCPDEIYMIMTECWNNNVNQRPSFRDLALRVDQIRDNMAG
Method in brief: as §1

Compound	Ki [1] [pM]	Ki [3] [pM]	IC50 ([2]; Homo sapiens, BEAS-2B, 1 h) [pM]	IC50 [2] [pM]
CN(C)CCN1CCC(n2nnc(Cn3cc(NC(=O)c4cnn5cccnc45)c(-c4cc(OC(F)F)ccc4OC(F)F)n3)n2)CC1 [Example 61, N-[3-[2,5-bis(difluoromethoxy)phenyl]-1-[[2-[1-[2-(dimethylamino)ethyl]-4-piperidyl]tetrazol-5-yl]methyl]pyrazol-4-yl]pyrazolo[1,5-a]pyrimidine-3-carboxamide]	630	520	32000	–
NCCn1nnc(Cn2cc(NC(=O)c3cnn4cccnc34)c(-c3cc(OC(F)F)ccc3OC(F)F)n2)n1 [Example 13, N-[1-[[2-(2-aminoethyl)tetrazol-5-yl]methyl]-3-[2,5-bis(difluoromethoxy)phenyl]pyrazol-4-yl]pyrazolo[1,5-a]pyrimidine-3-carboxamide]	250	160	11000	–
O=C(Nc1cn(Cc2nnn(C3CCNCC3)n2)nc1-c1cc(OC(F)F)ccc1OC(F)F)c1cnn2cccnc12 [Example 18, N-[3-[2,5-bis(difluoromethoxy)phenyl]-1-[[2-(4-piperidyl)tetrazol-5-yl]methyl]pyrazol-4-yl]pyrazolo[1,5-a]pyrimidine-3-carboxamide]	510	430	35000	–
O=C(Nc1cn(Cc2nnn(C3CNC3)n2)nc1-c1cc(Cl)ccc1OC(F)F)c1cnn2cccnc12 [Example 8, N-[1-[[2-(azetidin-3-yl)tetrazol-5-yl]methyl]-3-[5-chloro-2-(difluoromethoxy)phenyl]pyrazol-4-yl]pyrazolo[1,5-a]pyrimidine-3-carboxamide]	500	280	9300	–
CNCCn1nnc(Cn2cc(NC(=O)c3cnn4cccnc34)c(-c3cc(OC(F)F)ccc3OC(F)F)n2)n1 [Example 20, N-[3-[2,5-bis(difluoromethoxy)phenyl]-1-[[2-[2-(methylamino)ethyl]tetrazol-5-yl]methyl]pyrazol-4-yl]pyrazolo[1,5-a]pyrimidine-3-carboxamide]	570	460	30000	–
CN(C)CCN1CC(n2nnc(Cn3cc(NC(=O)c4cnn5cccnc45)c(-c4cc(OC(F)F)ccc4OC(F)F)n3)n2)C1 [Example 21, N-[3-[2,5-bis(difluoromethoxy)phenyl]-1-[[2-[1-[2-(dimethylamino)ethyl]azetidin-3-yl]tetrazol-5-yl]methyl]pyrazol-4-yl]pyrazolo[1,5-a]pyrimidine-3-carboxamide]	400	390	15000	–
CN(C)CCn1nnnc1Cn1cc(NC(=O)c2cnn3cccnc23)c(-c2cc(OC(F)F)ccc2OC(F)F)n1 [Example 17, N-[3-[2,5-bis(difluoromethoxy)phenyl]-1-[[1-[2-(dimethylamino)ethyl]tetrazol-5-yl]methyl]pyrazol-4-yl]pyrazolo[1,5-a]pyrimidine-3-carboxamide]	430	230	19000	–
CSc1ccc(OC(F)F)c(-c2nn(Cc3nnn(C4CN(CCCN(C)C)C4)n3)cc2NC(=O)c2cnn3cccnc23)c1 [Example 58, N-[3-[2-(difluoromethoxy)-5-methylsulfanyl-phenyl]-1-[[2-[1-[3-(dimethylamino)propyl]azetidin-3-yl]tetrazol-5-yl]methyl]pyrazol-4-yl]pyrazolo[1,5-a]pyrimidine-3-carboxamide]	410	380	57000	–
CN(CCN1CC(n2nnc(Cn3cc(NC(=O)c4cnn5cccnc45)c(-c4cc(OC(F)F)ccc4OC(F)F)n3)n2)C1)C(=O)OC(C)(C)C [Example 31, tert-butyl N-[2-[3-[5-[[3-[2,5-bis(difluoromethoxy)phenyl]-4-(pyrazolo[1,5-a]pyrimidine-3-carbonylamino)pyrazol-1-yl]methyl]tetrazol-2-yl]azetidin-1-yl]ethyl]-N-methyl-carbamate]	340	250	22000	–
CN1CCC(N2CC(n3nnc(Cn4cc(NC(=O)c5cnn6cccnc56)c(-c5cc(OC(F)F)ccc5OC(F)F)n4)n3)C2)C1 (single isomer, unassigned) [Example 72, N-[3-[2,5-bis(difluoromethoxy)phenyl]-1-[[2-[1-(1-methylpyrrolidin-3-yl)azetidin-3-yl]tetrazol-5-yl]methyl]pyrazol-4-yl]pyrazolo[1,5-a]pyrimidine-3-carboxamide]	610	480	36000	–
NCCn1nnnc1Cn1cc(NC(=O)c2cnn3cccnc23)c(-c2cc(OC(F)F)ccc2OC(F)F)n1 [Example 14, N-[1-[[1-(2-aminoethyl)tetrazol-5-yl]methyl]-3-[2,5-bis(difluoromethoxy)phenyl]pyrazol-4-yl]pyrazolo[1,5-a]pyrimidine-3-carboxamide]	260	120	39000	–

Second part, led by results:

Ki [1] [pM]	Ki [3] [pM]	Compound	IC50 ([2]; Homo sapiens, BEAS-2B, 1 h) [pM]	IC50 [2] [pM]
220	92	CN1CC(n2nnnc2Cn2cc(NC(=O)c3cnn4cccnc34)c(-c3cc(Cl)ccc3OC(F)F)n2)C1 [Example 15, N-[3-[5-chloro-2-(difluoromethoxy)phenyl]-1-[[1-(1-methylazetidin-3-yl)tetrazol-5-yl]methyl]pyrazol-4-yl]pyrazolo[1,5-a]pyrimidine-3-carboxamide]	8600	–
640	540	CN(C)[C@H]1C[C@H](N2CC(n3nnc(Cn4cc(NC(=O)c5cnn6cccnc56)c(-c5cc(OC(F)F)ccc5OC(F)F)n4)n3)C2)C1 [Example 70, N-[3-[2,5-bis(difluoromethoxy)phenyl]-1-[[2-[1-[3-(dimethylamino)cyclobutyl]azetidin-3-yl]tetrazol-5-yl]methyl]pyrazol-4-yl]pyrazolo[1,5-a]pyrimidine-3-carboxamide]	27000	–
220	150	CNCCn1nnnc1Cn1cc(NC(=O)c2cnn3cccnc23)c(-c2cc(OC(F)F)ccc2OC(F)F)n1 [Example 19, N-[3-[2,5-bis(difluoromethoxy)phenyl]-1-[[1-[2-(methylamino)ethyl]tetrazol-5-yl]methyl]pyrazol-4-yl]pyrazolo[1,5-a]pyrimidine-3-carboxamide]	21000	–
390	270	O=C(Nc1cn(Cc2nnn(C3CNC3)n2)nc1-c1cc(OC(F)F)ccc1OC(F)F)c1cnn2cccnc12 [Example 11, N-[1-[[2-(azetidin-3-yl)tetrazol-5-yl]methyl]-3-[2,5-bis(difluoromethoxy)phenyl]pyrazol-4-yl]pyrazolo[1,5-a]pyrimidine-3-carboxamide]	23000	–
300	360	O=C(Nc1cn(Cc2nnn(C3CCNC3)n2)nc1-c1cc(OC(F)F)ccc1OC(F)F)c1cnn2cccnc12 (single isomer, unassigned) [Example 28, N-[3-[2,5-bis(difluoromethoxy)phenyl]-1-[(2-pyrrolidin-3-yltetrazol-5-yl)methyl]pyrazol-4-yl]pyrazolo[1,5-a]pyrimidine-3-carboxamide]	–	12000
440	300	CN1CCC(n2nnc(Cn3cc(NC(=O)c4cnn5cccnc45)c(-c4cc(OC(F)F)ccc4OC(F)F)n3)n2)CC1 [Example 22]	19000	–
